Measured values reported in patent US20240376099A1, “COMPOUNDS AND COMPOSITIONS AS INHIBITORS OF ENDOSOMAL TOLL-LIKE RECEPTORS” (Novartis AG, priority 2016, published 2024).

Biological target: T1, TLR8 (Homo sapiens, UniProt Q9NR97)
T1 sequence (Q9NR97 27-1041): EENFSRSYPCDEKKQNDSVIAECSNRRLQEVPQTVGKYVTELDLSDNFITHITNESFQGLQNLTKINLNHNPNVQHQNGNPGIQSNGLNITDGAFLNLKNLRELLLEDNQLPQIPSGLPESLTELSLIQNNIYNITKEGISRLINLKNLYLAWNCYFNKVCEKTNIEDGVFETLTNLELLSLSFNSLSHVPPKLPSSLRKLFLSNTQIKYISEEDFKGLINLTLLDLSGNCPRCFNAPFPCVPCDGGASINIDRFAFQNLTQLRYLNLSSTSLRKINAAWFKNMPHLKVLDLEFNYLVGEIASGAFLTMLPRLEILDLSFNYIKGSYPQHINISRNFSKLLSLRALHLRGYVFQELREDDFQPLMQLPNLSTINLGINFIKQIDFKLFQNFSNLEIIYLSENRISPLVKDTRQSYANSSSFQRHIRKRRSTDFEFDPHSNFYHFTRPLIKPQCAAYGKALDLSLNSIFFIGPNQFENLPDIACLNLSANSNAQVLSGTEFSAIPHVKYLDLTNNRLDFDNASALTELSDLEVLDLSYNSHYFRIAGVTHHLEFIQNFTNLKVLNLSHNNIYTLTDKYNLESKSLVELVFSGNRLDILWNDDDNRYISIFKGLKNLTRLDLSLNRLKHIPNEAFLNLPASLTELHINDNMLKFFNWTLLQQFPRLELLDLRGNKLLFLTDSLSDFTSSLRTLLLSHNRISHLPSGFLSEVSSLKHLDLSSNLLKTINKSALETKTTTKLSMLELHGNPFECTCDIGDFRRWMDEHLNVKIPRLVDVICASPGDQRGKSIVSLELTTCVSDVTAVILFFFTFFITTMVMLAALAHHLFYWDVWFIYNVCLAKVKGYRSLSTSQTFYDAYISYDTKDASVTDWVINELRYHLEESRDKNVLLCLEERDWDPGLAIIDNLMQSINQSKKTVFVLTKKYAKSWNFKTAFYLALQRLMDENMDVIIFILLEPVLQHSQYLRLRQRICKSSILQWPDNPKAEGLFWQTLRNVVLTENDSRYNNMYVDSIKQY
Assay: huPBMC TLR8 Antagonist IL-6 TR-FRET Assay
Type: cell-based
Design: Fresh blood was collected from normal human donors; endogenous in cells; host or cells: human PBMCs from fresh donor blood
Details: human PBMCs stimulated with ssRNA40 1 μg/ml (DOTAP), 14-16 hrs; IL-6 TR-FRET read-out
Procedure, shortened: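 Human PBMCs from fresh donor blood (150,000 cells/well) stimulated 14–16 h at 37 °C with DOTAP-complexed ssRNA40 (final 1 μg/ml for TLR8, 10 μg/mL for TLR7) or ODN2216 (final 0.3 μM, TLR9), 0.25% DMSO, ten-point 1/3 compound dilutions. Supernatant IL-6 read by HTRF (TLR8); IFNα by IFNα2b AlphaLISA (TLR7/TLR9).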

Question: With `CCn1ncc2c(N3CCc4c(c(C)nn4CC45CCC(NC(=O)[C@@H]6COCCN6)(CC4)CC5)C3)cc(C)nc21` [compound 141, (S)-N-(4-((5-(1-ethyl-6-methyl-1H-pyrazolo[3,4-b]pyridin-4-yl)-3-methyl-4,5,6,7-tetrahydro-1H-pyrazolo[4,3-c]pyridin-1-yl)methyl)bicyclo[2.2.2]octan-1-yl)morpholine-3-carboxamide] as the molecule, how does the IC50 read?
Answer: The IC50 was 2290 nM.

Question: Which IC50 does the source give for `CCNCCC(=O)NC12CCC(Cn3nc(C)c4c3CCN(c3cc(C)nc5c3cnn5C)C4)(CC1)CC2` [compound 126, N-(4-((5-(1,6-dimethyl-1H-pyrazolo[3,4-b]pyridin-4-yl)-3-methyl-4,5,6,7-tetrahydro-1H-pyrazolo[4,3-c]pyridin-1-yl)methyl)bicyclo[2.2.2]octan-1-yl)-3-(ethylamino)propanamide] here?
Answer: Its IC50 is 153 nM.

Question: For `Cc1nc(N2CCc3c(c(C)nn3CC34CCC(NC(=O)[C@@H]5CNCCO5)(CC3)CC4)C2)c2c(n1)c(C)nn2C` [compound 34, (S)-N-(4-((3-methyl-5-(1,3,5-trimethyl-1H-pyrazolo[4,3-d]pyrimidin-7-yl)-4,5,6,7-tetrahydro-1H-pyrazolo[4,3-c]pyridin-1-yl)methyl)bicyclo[2.2.2]octan-1-yl)morpholine-2-carboxamide], which IC50 is on record?
Answer: Its IC50 is 29 nM.

Question: For `COCCNC12CCC(Cn3nc(C)c4c3CCN(c3nc(C)nc5c(C)nn(C)c35)C4)(CC1)CC2` [compound 18, N-(2-methoxyethyl)-4-((3-methyl-5-(1,3,5-trimethyl-1H-pyrazolo[4,3-d]pyrimidin-7-yl)-4,5,6,7-tetrahydro-1H-pyrazolo[4,3-c]pyridin-1-yl)methyl)bicyclo[2.2.2]octan-1-amine], which IC50 is on record?
Answer: The IC50 was 77 nM.

Question: With `Cc1cc(N2CCc3c(c(C)nn3CC34CCC(NC(=O)CCN(C)C)(CC3)CC4)C2)c2cnn(C)c2n1` [compound 105, N-(4-((5-(1,6-dimethyl-1H-pyrazolo[3,4-b]pyridin-4-yl)-3-methyl-4,5,6,7-tetrahydro-1H-pyrazolo[4,3-c]pyridin-1-yl)methyl)bicyclo[2.2.2]octan-1-yl)-3-(dimethylamino)propanamide] as the molecule, how does the IC50 read?
Answer: Its IC50 is 27 nM.

Question: With `Cc1nc(N2CCc3c(c(C)nn3CC34CCC(NC(=O)[C@H]5CNCCO5)(CC3)CC4)C2)c2c(n1)c(C)nn2C` [compound 36, (R)-N-(4-((3-methyl-5-(1,3,5-trimethyl-1H-pyrazolo[4,3-d]pyrimidin-7-yl)-4,5,6,7-tetrahydro-1H-pyrazolo[4,3-c]pyridin-1-yl)methyl)bicyclo[2.2.2]octan-1-yl)morpholine-2-carboxamide] as the molecule, how does the IC50 read?
Answer: Its IC50 is 80 nM.

Question: With `Cc1nn(CC23CCC(NC4CCC4)(CC2)CC3)c2c1CN(c1ccnc(-c3ccccc3)c1)CC2` [compound 144, N-cyclobutyl-4-((3-methyl-5-(2-phenylpyridin-4-yl)-4,5,6,7-tetrahydro-1H-pyrazolo[4,3-c]pyridin-1-yl)methyl)bicyclo[2.2.2]octan-1-amine] as the molecule, how does the IC50 read?
Answer: The IC50 was 105 nM.

Question: How did the IC50 turn out when `Cc1nn(CC23CCC(N)(CC2)CC3)c2c1CN(c1nc(N)nc3c1cnn3C)CC2` [compound 13, 4-(1-((4-aminobicyclo[2.2.2]octan-1-yl)methyl)-3-methyl-6,7-dihydro-1H-pyrazolo[4,3-c]pyridin-5(4H)-yl)-1-methyl-1H-pyrazolo[3,4-d]pyrimidin-6-amine] was run?
Answer: The IC50 was 1350 nM.

Question: For `Cc1cc(N2CCc3c(c(C)nn3CC34CCC(N5C[C@@H](C)O[C@H](C)C5)(CC3)CC4)C2)c2cnn(C)c2n1` [compound 113, (2R,6R)-4-(4-((5-(1,6-dimethyl-1H-pyrazolo[3,4-b]pyridin-4-yl)-3-methyl-4,5,6,7-tetrahydro-1H-pyrazolo[4,3-c]pyridin-1-yl)methyl)bicyclo[2.2.2]octan-1-yl)-2,6-dimethylmorpholine], which IC50 is on record?
Answer: Its IC50 is 16 nM.

Question: How did the IC50 turn out when `Cc1cc(N2CCc3c(c(C)nn3CC34CCC(N5CCN(C)CC5=O)(CC3)CC4)C2)c2cnn(C)c2n1` [Compound No. 108, 1-(4-((5-(1,6-dimethyl-1H-pyrazolo[3,4-b]pyridin-4-yl)-3-methyl-4,5,6,7-tetrahydro-1H-pyrazolo[4,3-c]pyridin-1-yl)methyl)bicyclo[2.2.2]octan-1-yl)-4-methylpiperazin-2-one] was run?
Answer: Its IC50 is 44 nM.

Question: For `Cc1nc(N2CCc3c(c(C)nn3CC34CCC(N5CCCC5)(CC3)CC4)C2)c2cn[nH]c2n1` [compound 30, 6-methyl-4-(3-methyl-1-((4-(pyrrolidin-1-yl)bicyclo[2.2.2]octan-1-yl)methyl)-6,7-dihydro-1H-pyrazolo[4,3-c]pyridin-5(4H)-yl)-1H-pyrazolo[3,4-d]pyrimidine], which IC50 is on record?
Answer: The IC50 was 324 nM.

Question: `CCNCC(=O)NC12CCC(Cn3nc(C)c4c3CCN(c3nc(C)nc5[nH]ncc35)C4)(CC1)CC2` [compound 20, 2-(ethylamino)-N-(4-((3-methyl-5-(6-methyl-1H-pyrazolo[3,4-d]pyrimidin-4-yl)-4,5,6,7-tetrahydro-1H-pyrazolo[4,3-c]pyridin-1-yl)methyl)bicyclo[2.2.2]octan-1-yl)acetamide] was tested. Which IC50 did it give?
Answer: The IC50 was 31 nM.

Question: `Cc1cc(N2CCc3c(c(C)nn3CC34CCC(NCC(=O)N5CCCCC5)(CC3)CC4)C2)c2cnn(C)c2n1` [compound 99, 2-((4-((5-(1,6-dimethyl-1H-pyrazolo[3,4-b]pyridin-4-yl)-3-methyl-4,5,6,7-tetrahydro-1H-pyrazolo[4,3-c]pyridin-1-yl)methyl)bicyclo[2.2.2]octan-1-yl)amino)-1-(piperidin-1-yl)ethanone] was tested. Which IC50 did it give?
Answer: The IC50 was 130 nM.

Question: With `Cc1cc(N2CCc3c(c(C)nn3CC34CCC(n5ccnc5)(CC3)CC4)C2)c2cnn(C)c2n1` [Compound No. 119, 1-((4-(1H-imidazol-1-yl)bicyclo[2.2.2]octan-1-yl)methyl)-5-(1,6-dimethyl-1H-pyrazolo[3,4-b]pyridin-4-yl)-3-methyl-4,5,6,7-tetrahydro-1H-pyrazolo[4,3-c]pyridine] as the molecule, how does the IC50 read?
Answer: The IC50 was 1180 nM.

Question: How did the IC50 turn out when `Cc1cc(N2CCc3c(c(C)nn3CC34CCC(NC(=O)[C@@H]5COCCN5)(CC3)CC4)C2)c2cnn(C)c2n1` [Compound No. 8, (S)—N-(4-((5-(1,6-dimethyl-1H-pyrazolo[3,4-b]pyridin-4-yl)-3-methyl-4,5,6,7-tetrahydro-1H-pyrazolo[4,3-c]pyridin-1-yl)methyl)bicyclo[2.2.2]octan-1-yl)morpholine-3-carboxamide] was run?
Answer: The IC50 was 166 nM.

Question: For `CCNCC(=O)NC12CCC(Cn3nc(C)c4c3CCN(c3nc(C)nc5c(C)nn(C)c35)C4)(CC1)CC2` [compound 22, 2-(ethylamino)-N-(4-((3-methyl-5-(1,3,5-trimethyl-1H-pyrazolo[4,3-c]pyrimidin-7-yl)-4,5,6,7-tetrahydro-1H-pyrazolo[4,3-c]pyridin-1-yl)methyl)bicyclo[2.2.2]octan-1-yl)acetamide], which IC50 is on record?
Answer: The IC50 was 14 nM.

Question: How did the IC50 turn out when `Cc1cc(N2CCc3c(c(C)nn3CC34CCC(NCC5(CO)COC5)(CC3)CC4)C2)c2cnn(C)c2n1` [compound 137, (3-(((4-((5-(1,6-dimethyl-1H-pyrazolo[3,4-b]pyridin-4-yl)-3-methyl-4,5,6,7-tetrahydro-1H-pyrazolo[4,3-c]pyridin-1-yl)methyl)bicyclo[2.2.2]octan-1-yl)amino)methyl)oxetan-3-yl)methanol] was run?
Answer: Its IC50 is 68 nM.

Question: `Cc1cc(N2CCc3c(c(C)nn3CC34CCC(NC(=O)OC(C)(C)C)(CC3)C4)C2)c2cnn(C)c2n1` [compound 148, tert-butyl (4-((5-(1,6-dimethyl-1H-pyrazolo[3,4-b]pyridin-4-yl)-3-methyl-4,5,6,7-tetrahydro-1H-pyrazolo[4,3-c]pyridin-1-yl)methyl)bicyclo[2.2.1]heptan-1-yl)carbamate] was tested. Which IC50 did it give?
Answer: The IC50 was over 10000 nM.

Question: For `Cc1cc(N2CCc3c(c(C)nn3CC34CCC(NC5CCC5)(CC3)CO4)C2)c2cnn(C)c2n1` [compound 143, N-cyclobutyl-1-((5-(1,6-dimethyl-1H-pyrazolo[3,4-b]pyridin-4-yl)-3-methyl-4,5,6,7-tetrahydro-1H-pyrazolo[4,3-c]pyridin-1-yl)methyl)-2-oxabicyclo[2.2.2]octan-4-amine], which IC50 is on record?
Answer: Its IC50 is 687 nM.

Question: How did the IC50 turn out when `Cc1nc(N2CCc3c(c(C)nn3CC34CCC(N5CCCC5)(CC3)CC4)C2)c2c(n1)c(C)nn2C` [compound 17, 1,3,5-trimethyl-7-(3-methyl-1-((4-(pyrrolidin-1-yl)bicyclo[2.2.2]octan-1-yl)methyl)-6,7-dihydro-1H-pyrazolo[4,3-c]pyridin-5(4H)-yl)-1H-pyrazolo[4,3-d]pyrimidine] was run?
Answer: The IC50 was 199 nM.
